According to PubChem BioAssay AID624385 (Sanford-Burnham Center for Chemical Genomics, 2012):
The source made the active and inactive calls. The rule behind the calls is not given here.

Target: Small ubiquitin-related modifier 2 (Homo sapiens) (UniProt P61956)
Assay: disruption of SUMO2 interaction with SIM peptide – biochemical, fluorescence polarization, uHTS hits, selectivity assay for SUMO1 interaction inhibitor project, dose response (AID 624385)
Details: SUMO2-SIM peptide binding

Small ubiquitin-related modifier 2 (Homo sapiens), sequence (P61956 whole entry, looked up): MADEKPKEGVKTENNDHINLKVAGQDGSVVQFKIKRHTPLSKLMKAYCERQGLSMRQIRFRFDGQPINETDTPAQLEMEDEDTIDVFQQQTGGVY

Row | SMILES | IC50
1 | N#CC(C(=O)Nc1cccc(Cl)c1)=C1Nc2ccccc2N1 | > 66 µM (inactive)
2 | C[c-]1[c-](C)[c-](C)[c-](C)[c-]1C.[Fe].c1cc2nccc(N3CCCC3)[c-]2c1 (configuration not stated) | inactive
